Key:
[1] = test system: human umbilical vein endothelial cells (HUVEC); experiment: Uptake of fluorophore-labeled milk exosomes into HUVECs; type: cell-based; conditions: for effect on exosome uptake in HUVEC cells: inhibitors or 150 mmol/L carbohydrate competitors
Caco-2 cells = type: in vitro ADME, human
Method: In transwell studies Caco-2 cells were seeded at a density of 9000 cells/well with […] of media in 96-well polycarbonate plates with a pore size of […] (EMD Millipore). The cells were allowed to grow a differentiated monolayer for 21-24 d (33). Caco-2 cell monolayer integrity was formally confirmed using the Lucifer yellow (LY) rejection assay according to the manufacturer's instructions (33). LY fluorescence was measured in the transwell apical and basolateral chambers after 1 h of incubation at 37° C. In parallel experiments, Caco-2 cells were cultured in exosome-depleted media to which milk exosomes were added back to produce a concentration of 275 mg/100 mL exosomal protein in either the upper, apical chamber or the lower, basolateral chamber. Controls were cultured in exosome-depleted media. Aliquots of media were collected from the upper chamber and bottom chamber after 2 h of incubation for analysis of microRNAs. Twenty-five attomoles of internal standard (miSPIKE Synthetic RNA; IDT Technologies) was added to samples before microRNA extraction and subsequent analysis of miR-29b and miR-200c in transwell chambers by quantitative real-time PCR and microRNA-specific primers; miSpike was also used for PCR calibration. Values were corrected for the internal standard to normalize for extraction efficiency.

[2] = test system: human small intestinal cells (FHs cells); experiment: Uptake of milk exosomes into FH cells (protease, glycosidase, lectin, sonication); type: cell-based
[3] = test system: human macrophage U937 cells; experiment: Uptake of milk exosomes into U937 cells; type: cell-based; conditions: exosomes treated with the labelled agent
[4] = test system: human colon carcinoma Caco-2 cells; type: cell-based
Method: Caco-2 cells and IEC-6 cells were seeded at a density of 20,000 and 7000 cells/well, respectively, in 96-well plates, and allowed to adhere for 48 h, when cells were 75% confluent. The exosomes were labeled with the fluorophore, FM 4-64 (Molecular Probes). One microliter of a stock solution of FM 4-64 (5.9 mmol/L) was added to 1 mL of exosome suspension and incubated for 15 min at 37° C., and excess FM 4-64 was removed by ultracentrifugation at 120,000 3 g at 4° C. for 90 min. […] Assays were calibrated by quantifying the fluorescence of a known mass of exosomes labeled with FM 4-64. Exosome uptake was analyzed by measuring the cell fluorescence at 515 (excitation) and 640 nm (emission) using a Biotek FLx800 plate reader (BioTek Instru-ments). Fluorescence readings were corrected for cell autofluorescence by subtracting signals measured in cells incubated with exosome-depleted media. […] In Caco-2 cells, exosome uptake was linear for up to 120 min if transport was measured using nonsaturating substrate concentrations (FIG. 33A): y=0.0012x+0.014 (r2=0.97; P<0.05). In IEC-6 cells exosome uptake was linear for only up to 60 min if transport was measured using nonsaturating substrate concentrations (FIG. 33B): y=0.0033x+0.033 (r2=0.75; P<0.05). […]

HUVEC = experiment: Cell death (MTT viability) assay with puromycin-loaded exosomes; type: cell-based, human; conditions: 1,837 μM puromycin added directly to media, 24 h
Method: The possibility that adherence to cells, rather than uptake into cells, accounted for cell fluorescence was dismissed based on the following cell death-based and enhanced green fluorescent protein (eGFP) protocols. Milk exosomes were suspended in BTXpress electroporation buffer (BTX, Holliston, MA; final concentration 100 […]), containing zero (negative control), 56 μM, or 223 μM puromycin in a 4-mm electroporation cuvette. Exosomes were loaded with puromycin or with a mammalian eGFP expression plasmid by electroporation in a Gene Pulser Xcell electroporator (Bio-Rad) using 250 V, 950 μF, and infinite resistance. Extra-exosomal puromycin was removed by ultracentrifugation and washing, and exosomes were resuspended in 300 μl of exosome-depleted cell culture media. In cell death assays, 100 μl of the suspension were added per well in a 96-well cell culture plate (containing ˜200 μl of media) and cells were cultured for 24 h, when viability was assessed using the MTT assay. Positive controls were created by adding puromycin directly to the media without encapsulation in exosomes, thereby producing a concentration of 1,837 μM puromycin. In eGFP assays, cells were cultured in media in which eGFP-loaded milk exosomes were substituted for exosomes in fetal bovine serum. Expression of eGFP was assessed by using confocal microscopy 3 days after initiation of cultures.

[5] = FH cells treated with the labelled agent
[6] = exosomes treated with the labelled agent

Question: With `C=C1[C@@H](C)[C@H]2[C@H](Cc3ccccc3)NC(=O)[C@]23[C@H](OC(C)=O)/C=C/[C@@](C)(O)C(=O)[C@@H](C)C/C=C/[C@H]3[C@@H]1O` [cytochalasin D] as the compound, how does the “decrease of exosome transport compared with controls” value ([1]; HUVEC, exosomes treated with proteinase K, or transport in presence of the labelled agent) read?
Answer: Its value is 50%.

Question: What about the exosome uptake ([1]; cells treated with 5 μg/ml cytochalasin D) of the same compound?
Answer: Its exosome uptake is 63.5±21.3 % of controls.

Question: What about the exosome uptake ([1]; cells treated with 10 μg/ml cytochalasin D) of the same compound?
Answer: Its exosome uptake is 40.8±22.0 % of controls.

Question: And the “effect on exosome uptake in HUVEC cells” value [1]?
Answer: The value was “decrease in exosome uptake”.

Question: Which “effect on exosome uptake in HUVEC cells” value [1] does the source give for `O=C[C@H](O)[C@@H](O)[C@@H](O)[C@H](O)CO` [D-galactose] here?
Answer: Its value is “significant decrease in exosome uptake”.

Question: For `C[C@H]1CCC/C=C/[C@@H]2C[C@H](O)C[C@H]2[C@H](O)/C=C/C(=O)O1` [BFA, brefeldin A], which “effect on exosome uptake in HUVEC cells” value [1] is on record?
Answer: Its value is “decrease in exosome uptake”.

Question: For Lucifer yellow, which rejection rate (Caco-2 cells) is on record?
Answer: The rejection rate was 99.8%.

Question: Which “effect on exosome uptake in FH cells” value [2, 5] does the source give for β-galactosidase here?
Answer: Its value is “decrease in exosome uptake”.

Question: What about the “effect on exosome uptake in FH cells” value [2, 6] of the same compound?
Answer: Its value is “decrease in exosome uptake”.

Question: And the “effect on exosome uptake in U937 cells” value [3]?
Answer: The value was “decrease in exosome uptake”.

Question: What does the source list for “Glu-C: Serine protease cleaving at glutamic acid and aspartic acid”?
Answer: effect on exosome uptake in Caco-2 cells ([4]; Caco-2): significant decrease in exosome transport; transport rates (Vmax) ([4]; exosomes treated with the labelled protease, intestinal transport): 19±0.3 arbitrary units

Question: With “SBA: Lectin binding terminal N-acetylgalactosamine and galactopyranosyl residues” as the compound, how does the “effect on exosome uptake in FH cells” value [2, 5] read?
Answer: The value was “decreases the uptake”.

Question: What about the “effect on exosome uptake in FH cells” value [2, 6] of the same compound?
Answer: Its value is “decreases the uptake”.

Question: “PHA-E: Lectin binding terminal galactose, N-acetylglucosamine and mannose residues of complex glycans” was tested. Which “effect on exosome uptake in FH cells” value [2, 5] did it give?
Answer: Its value is “decreases the uptake”.

Question: What about the “effect on exosome uptake in FH cells” value [2, 6] of the same compound?
Answer: Its value is “decreases the uptake”.

Question: With `COc1ccc(C[C@H](N)C(=O)N[C@H]2[C@@H](O)[C@H](n3cnc4c(N(C)C)ncnc43)O[C@@H]2CO)cc1` [puromycin] as the compound, how does the viability (HUVEC) read?
Answer: Its viability is 37 % of puromycin-free controls.
